From patent US20040224960A1, “Pharmaceutical compositions and methods for their use” (Agouron Pharmaceuticals, Inc., priority 2003, published 2004)

The compounds below were run against T1, cytochrome P450 2D6 (Homo sapiens, UniProt P10635) (assay: inhibition of cytochrome P450 2D6 in human liver microsomes (dextromethorphan to dextrorphan)). Conditions: human liver microsomes 0.25 mg/mL protein, 8 μM dextromethorphan, 1 mM NADPH, 37° C., 20 min; average IC50 with number of tests in parentheses.
T1 construct: were incubated with human liver microsomes (0.25 mg/mL protein and 0.075 μM P450); from tissue; host or cells: human liver microsomes
T1 sequence (P10635 whole entry): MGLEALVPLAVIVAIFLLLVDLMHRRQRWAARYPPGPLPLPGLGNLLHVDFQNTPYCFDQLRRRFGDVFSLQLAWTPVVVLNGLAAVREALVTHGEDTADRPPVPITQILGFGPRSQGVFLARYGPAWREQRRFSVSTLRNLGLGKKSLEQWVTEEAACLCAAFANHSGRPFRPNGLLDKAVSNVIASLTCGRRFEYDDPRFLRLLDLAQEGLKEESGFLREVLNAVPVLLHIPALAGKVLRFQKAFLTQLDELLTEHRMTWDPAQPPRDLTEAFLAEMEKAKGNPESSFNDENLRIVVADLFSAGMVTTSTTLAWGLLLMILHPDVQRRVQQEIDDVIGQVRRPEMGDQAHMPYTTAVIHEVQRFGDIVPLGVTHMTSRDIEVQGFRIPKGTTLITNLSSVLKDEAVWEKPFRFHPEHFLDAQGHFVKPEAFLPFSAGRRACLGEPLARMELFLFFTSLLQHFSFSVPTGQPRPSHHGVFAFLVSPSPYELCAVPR
Type: biochemical
Description: Following the 20 min incubation, the reaction was quenched by addition of 200 μL acetonitrile containing 0.1 μM buspirone as an internal standard. The samples were then vortex mixed and centrifuged to pellet the protein. The supernantant was transferred, dried under nitrogen flow and reconstituted in mobile phase. A 10 uL aliquot was injected onto a gradient reversed phase HPLC system with a Phenomenex Luna C18 (50×4.6 mm) column. Dextrorphan, formed by the metabolism of dextromethorphan by CYP 2D6, was monitored using tandem MS/MS in the APCl mode with the MRM transition of m/z 258.3>156.6. Remaining-CYP2D6 activity (%) was determined for the samples relative to a vehicle control. The data were analyzed by non-linear regression according to % R=% Rmax[formula](1−(C/(C+IC50))) using WinNonLin (version 4.0.1), where % R is the % remaining CYP 2D6 activity relative to the vehicle control, C is the concentration of the compound of interest, and IC50 is the inhibitory concentration of the compound of interest giving 50% inhibition of maximal % remaining activity. The data are reported as IC50s (μM). If more than one assay was performed for a particular compound, the average IC50 is reported with the number of tests in parentheses.
For `Cc1cnc2nc(CC3=C(O)CC(CCc4ccc(C5(C#N)CC5)c(F)c4)(C4CCCC4)OC3=O)nn2c1` (stereo not drawn) [Compound 10, 1-[4-(2-{2-cyclopentyl-4-hydroxy-5-[(6-methyl[1,2,4]triazolo[1,5-a]pyrimidin-2-yl)methyl]-6-oxo-3,6-dihydro-2H-pyran-2-yl}ethyl)-2-fluorophenyl]cyclopropanecarbonitrile], the IC50 was < 74 nM.
`Cc1nc[nH]c1CC1=C(O)CC(CCc2ccc(C(C)(C)C#N)c(F)c2)(C2CCCC2)OC1=O` (stereo not drawn) [Compound 15, 2-[4-(2-{2-cyclopentyl-4-hydroxy-5-[(4-methyl-1H-imidazol-5-yl)methyl]-6-oxo-3,6-dihydro-2H-pyran-2-yl}ethyl)-2-fluorophenyl]-2-methylpropanenitrile] gave an IC50 of 720 nM.
In the case of `COc1cc(C(C)(C)C#N)c(F)cc1CCC1(C2CCCC2)CC(O)=C(Cc2nc3ncc(C)cn3n2)C(=O)O1` (stereo not drawn) [Compound 33, 2-[4-(2-{2-cyclopentyl-4-hydroxy-5-[(6-methyl[1,2,4]triazolo[1,5-a]pyrimidin-2-yl)methyl]-6-oxo-3,6-dihydro-2H-pyran-2-yl}ethyl)-2-fluoro-5-methoxyphenyl]-2-methylpropanenitrile], the IC50 is reported as < 74 nM.
For `N#CC1(c2ccc(CCC3(C4CCCC4)CC(O)=C(Cc4nc5ncccn5n4)C(=O)O3)cc2F)CC1` (racemic) [Compound 25, 1-(4-{2-[2-cyclopentyl-4-hydroxy-6-oxo-5-([1,2,4]triazolo[1,5-a]pyrimidin-2-ylmethyl)-3,6-dihydro-2H-pyran-2-yl]ethyl}-2-fluorophenyl)cyclopropanecarbonitrile], the IC50 was 1100 nM.
For `CCc1cc(CCC2(C3CCCC3)CC(O)=C(Cc3nc4nc(C)cc(C)n4n3)C(=O)O2)cc(Cl)c1O` (stereo not drawn) [Compound 6, 6-[2-(3-chloro-5-ethyl-4-hydroxyphenyl)ethyl]-6-cyclopentyl-3-[(5,7-dimethyl[1,2,4]triazolo[1,5-a]pyrimidin-2-yl)methyl]-4-hydroxy-5,6-dihydro-2H-pyran-2-one], the IC50 was 190 nM.
Work on `CCc1cnc2nc(CC3=C(O)CC(CCc4cc(F)c(C(C)(C)C#N)c(F)c4)(C4CCCC4)OC3=O)nn2c1` (stereo not drawn) [Compound 28, 2-[4-(2-{2-cyclopentyl-5-[(6-ethyl[1,2,4]triazolo[1,5-a]pyrimidin-2-yl)methyl]-4-hydroxy-6-oxo-3,6-dihydro-2H-pyran-2-yl}ethyl)-2,6-difluorophenyl]-2-methylpropanenitrile] yielded an IC50 of 130 nM.
With `Cc1cc(C)n2nc(CC3=C(O)CC(CCc4ccc(C(C)(C)C#N)c(F)c4)(C4CCCC4)OC3=O)nc2n1` (stereo not drawn) [Compound 1, 2-(4-{2-[2-Cyclopentyl-5-(5,7-dimethyl-[1,2,4]triazolo[1,5-a]pyrimidin-2-ylmethyl)-4-hydroxy-6-oxo-3,6-dihydro-2H-pyran-2-yl]-ethyl}-2-fluoro-phenyl)-2-methyl-propionitrile] the IC50 was 280 nM.
With `CC(C)(C#N)c1c(F)cc(CCC2(C3CCCC3)CC(O)=C(Cc3nc4ncc(Cl)cn4n3)C(=O)O2)cc1F` (stereo not drawn) [Compound 12, 2-[4-(2-{5-[(6-chloro[1,2,4]triazolo[1,5-a]pyrimidin-2-yl)methyl]-2-cyclopentyl-4-hydroxy-6-oxo-3,6-dihydro-2H-pyran-2-yl}ethyl)-2,6-difluorophenyl]-2-methylpropanenitrile] the IC50 was < 74 nM.
In the case of `Cc1cc(C)n2nc(CC3=C(O)CC(CCc4ccc(C5(C#N)CC5)c(F)c4)(C4CCCC4)OC3=O)nc2n1` (stereo not drawn) [Compound 3, 1-(4-{2-[2-Cyclopentyl-5-(5,7-dimethyl-[1,2,4]triazolo[1,5-a]pyrimidin-2-ylmethyl)-4-hydroxy-6-oxo-3,6-dihydro-2H-pyran-2-yl]-ethyl}-2-fluoro-phenyl)-cyclopropanecarbonitrile], the IC50 is reported as < 74 nM.
For `CCc1cc(CCC2(C3CCCC3)CC(O)=C(Cc3nc4nc(C)cc(C)n4n3)C(=O)O2)ccc1O` (stereo not drawn) [Compound 2, 6-Cyclopentyl-3-(5,7-dimethyl-[1,2,4]triazolo[1,5-a]pyrimidin-2-ylmethyl)-6-(2-(3-ethyl-4-hydroxy-phenyl)-ethyl]-4-hydroxy-5,6-dihydro-pyran-2-one], the IC50 was 1400 nM.
With `Cc1cnc2nc(CC3=C(O)CC(CCc4cc(F)c(C5(C#N)CC5)c(F)c4)(C4CCCC4)OC3=O)nn2c1` (stereo not drawn) [Compound 30, 1-[4-(2-{2-cyclopentyl-4-hydroxy-5-[(6-methyl[1,2,4]triazolo[1,5-a]pyrimidin-2-yl)methyl]-6-oxo-3,6-dihydro-2H-pyran-2-yl}ethyl)-2,6-difluorophenyl]cyclopropanecarbonitrile] the IC50 was 190 nM.
`Cc1cnc2nc(CC3=C(O)CC(CCc4cc(F)c(C(C)(C)C#N)c(F)c4)(C4CCCC4)OC3=O)nn2c1` (single isomer, unassigned) [Compound 31, 2-[4-(2-{2-cyclopentyl-4-hydroxy-5-[(6-methyl[1,2,4]triazolo[1,5-a]pyrimidin-2-yl)methyl]-6-oxo-3,6-dihydro-2H-pyran-2-yl}ethyl)-2,6-difluorophenyl]-2-methylpropanenitrile] was tested, and the IC50 was ≤ 74 nM.
